Measured values taken from US9546156B2, “N-bicyclic aryl,N'-pyrazolyl urea, thiourea, guanidine cyanoguanidine compounds as TrkA kinase inhibitors” (Array BioPharma Inc., priority 2012, dated 2017).

Legend:
[1] = molecular target: T1, His-tagged recombinant human TrkA (Homo sapiens, UniProt P04629); assay: TrkA LanthaScreen Eu Kinase Binding Assay; settings: averaged IC50; TR-FRET binding assay, 60 min, 22° C.; read-out: TrkA Enzyme IC50
T1 construct: 6HIS tagged cytoplasmic domain from Invitrogen, Catalog No. PV3144; purchased Invitrogen PV3144
Method: TrkA binding activity was determined in a TrkA LanthaScreen™ Eu Kinase Binding Assay. 5 nM His-tagged recombinant human TrkA (6HIS tagged cytoplasmic domain from Invitrogen, Catalog No. PV3144) was incubated with 4 nM Alexa-Fluor® Tracer 236 (Invitrogen Cat. No. PV5592), 2 nM biotinylated anti-His (Invitrogen Cat. No. PV6090), and 2 nM europium-labeled Streptavidin (Invitrogen Cat. No. PV5899), in buffer (25 mM MOPS, pH 7.5, 5 mM MgCl2, 0.005% Triton X-100). Three fold serial dilutions of compounds of the invention in DMSO were added to a final percentage of 2% DMSO. After 60-minute incubation at 22° C., the reaction was measured using the EnVision multimode plate reader (PerkinElmer) via TR-FRET dual wavelength detection at […]. The percent of control was calculated using a ratiometric emission factor. The IC50 values were determined by fitting a four parameter model to the percent of control data.
Table A provides averaged IC50 values for compounds of the invention when tested in the assay of Example A, where A represents an averaged IC50 value <100 nM; B represents an averaged IC50 value from 100 to 1,000 nM; and C represents an averaged IC50 value from 1,000 to 10,000 nM.

AKT3 = molecular target: T2, AKT3 (Homo sapiens, UniProt Q9Y243); assay: Off-target kinase profiling (KinaseProfiler); assay type: biochemical; settings: 10 μM, ATP near Km
T2 construct: purchased Millipore, Inc. (KinaseProfiler service)
Method: (§1) A representative compound (Example 16) of the invention was tested for off-target kinase activity at a concentration of 10 μM by Millipore, Inc. in their KinaseProfiler™ service against all the kinases available in their full kinase panel. The compound was run in duplicate at a concentration of ATP near the Km for each individual kinase according to Millipore's specifications. The results are shown in Table B. Data are reported as percent of control (POC) and are the average of the two replicates.

ARK5 = molecular target: T3, ARK5 (Homo sapiens, UniProt O60285); assay: Off-target kinase profiling (KinaseProfiler); assay type: biochemical; settings: 10 μM, ATP near Km
T3 construct: purchased Millipore, Inc. (KinaseProfiler service)
Method: as §1

CAMK2b = molecular target: T4, CAMK2b (Homo sapiens, UniProt Q13554); assay: Off-target kinase profiling (KinaseProfiler); assay type: biochemical; settings: 10 μM, ATP near Km
T4 construct: purchased Millipore, Inc. (KinaseProfiler service)
Method: as §1

CAMK4 = molecular target: T5, CAMK4 (Homo sapiens, UniProt Q16566); assay: Off-target kinase profiling (KinaseProfiler); assay type: biochemical; settings: 10 μM, ATP near Km
T5 construct: purchased Millipore, Inc. (KinaseProfiler service)
Method: as §1

CDK2/cyclinA = molecular target: T6, CDK2/cyclinA (Homo sapiens, UniProt P24941); assay: Off-target kinase profiling (KinaseProfiler); assay type: biochemical; settings: 10 μM, ATP near Km
T6 construct: purchased Millipore, Inc. (KinaseProfiler service)
Method: as §1

CDK5/p25 = molecular target: T7, CDK5/p25 (Homo sapiens, UniProt Q00535); assay: Off-target kinase profiling (KinaseProfiler); assay type: biochemical; settings: 10 μM, ATP near Km
T7 construct: purchased Millipore, Inc. (KinaseProfiler service)
Method: as §1

CDK5/p35 = molecular target: T8, CDK5/p35 (Homo sapiens, UniProt Q00535); assay: Off-target kinase profiling (KinaseProfiler); assay type: biochemical; settings: 10 μM, ATP near Km
T8 construct: purchased Millipore, Inc. (KinaseProfiler service)
Method: as §1

CHK2 = molecular target: T9, CHK2 (Homo sapiens, UniProt O96017); assay: Off-target kinase profiling (KinaseProfiler); assay type: biochemical; settings: 10 μM, ATP near Km
T9 construct: purchased Millipore, Inc. (KinaseProfiler service)
Method: as §1

CK1_y = assay: Off-target kinase profiling (KinaseProfiler); assay type: biochemical; settings: 10 μM, ATP near Km
Method: as §1

DAPK1 = molecular target: T10, DAPK1 (Homo sapiens, UniProt P53355); assay: Off-target kinase profiling (KinaseProfiler); assay type: biochemical; settings: 10 μM, ATP near Km
T10 construct: purchased Millipore, Inc. (KinaseProfiler service)
Method: as §1

DAPK2 = molecular target: T11, DAPK2 (Homo sapiens, UniProt Q9UIK4); assay: Off-target kinase profiling (KinaseProfiler); assay type: biochemical; settings: 10 μM, ATP near Km
T11 construct: purchased Millipore, Inc. (KinaseProfiler service)
Method: as §1

ERK1 = molecular target: T12, ERK1 (Homo sapiens, UniProt P27361); assay: Off-target kinase profiling (KinaseProfiler); assay type: biochemical; settings: 10 μM, ATP near Km
T12 construct: purchased Millipore, Inc. (KinaseProfiler service)
Method: as §1

EphA4 = molecular target: T13, EphA4 (Homo sapiens, UniProt P54764); assay: Off-target kinase profiling (KinaseProfiler); assay type: biochemical; settings: 10 μM, ATP near Km
T13 construct: purchased Millipore, Inc. (KinaseProfiler service)
Method: as §1

EphA8 = molecular target: T14, EphA8 (Homo sapiens, UniProt P29322); assay: Off-target kinase profiling (KinaseProfiler); assay type: biochemical; settings: 10 μM, ATP near Km
T14 construct: purchased Millipore, Inc. (KinaseProfiler service)
Method: as §1

FGFR2 = molecular target: T15, FGFR2 (Homo sapiens, UniProt P21802); assay: Off-target kinase profiling (KinaseProfiler); assay type: biochemical; settings: 10 μM, ATP near Km
T15 construct: purchased Millipore, Inc. (KinaseProfiler service)
Method: as §1

GRK7 = molecular target: T16, GRK7 (Homo sapiens, UniProt Q8WTQ7); assay: Off-target kinase profiling (KinaseProfiler); assay type: biochemical; settings: 10 μM, ATP near Km
T16 construct: purchased Millipore, Inc. (KinaseProfiler service)
Method: as §1

Hck = molecular target: T17, Hck (Homo sapiens, UniProt P08631); assay: Off-target kinase profiling (KinaseProfiler); assay type: biochemical; settings: 10 μM, ATP near Km
T17 construct: purchased Millipore, Inc. (KinaseProfiler service)
Method: as §1

IGF-1R = molecular target: T18, IGF-1R (Homo sapiens, UniProt P08069); assay: Off-target kinase profiling (KinaseProfiler); assay type: biochemical; settings: 10 μM, ATP near Km
T18 construct: purchased Millipore, Inc. (KinaseProfiler service)
Method: as §1

LKB1 = molecular target: T19, LKB1 (Homo sapiens, UniProt Q15831); assay: Off-target kinase profiling (KinaseProfiler); assay type: biochemical; settings: 10 μM, ATP near Km
T19 construct: purchased Millipore, Inc. (KinaseProfiler service)
Method: as §1

MEK1 = molecular target: T20, MEK1 (Homo sapiens, UniProt Q02750); assay: Off-target kinase profiling (KinaseProfiler); assay type: biochemical; settings: 10 μM, ATP near Km
T20 construct: purchased Millipore, Inc. (KinaseProfiler service)
Method: as §1

MSK2 = molecular target: T21, MSK2 (Homo sapiens, UniProt O75676); assay: Off-target kinase profiling (KinaseProfiler); assay type: biochemical; settings: 10 μM, ATP near Km
T21 construct: purchased Millipore, Inc. (KinaseProfiler service)
Method: as §1

MuSK = molecular target: T22, MuSK (Homo sapiens, UniProt O15146); assay: Off-target kinase profiling (KinaseProfiler); assay type: biochemical; settings: 10 μM, ATP near Km
T22 construct: purchased Millipore, Inc. (KinaseProfiler service)
Method: as §1

NEK6 = molecular target: T23, NEK6 (Homo sapiens, UniProt Q9HC98); assay: Off-target kinase profiling (KinaseProfiler); assay type: biochemical; settings: 10 μM, ATP near Km
T23 construct: purchased Millipore, Inc. (KinaseProfiler service)
Method: as §1

PKCeta = molecular target: T24, PKCeta (Homo sapiens, UniProt P24723); assay: Off-target kinase profiling (KinaseProfiler); assay type: biochemical; settings: 10 μM, ATP near Km
T24 construct: purchased Millipore, Inc. (KinaseProfiler service)
Method: as §1

PhKgamma2 = molecular target: T25, PhKgamma2 (Homo sapiens, UniProt P15735); assay: Off-target kinase profiling (KinaseProfiler); assay type: biochemical; settings: 10 μM, ATP near Km
T25 construct: purchased Millipore, Inc. (KinaseProfiler service)
Method: as §1

Ron = molecular target: T26, Ron (Homo sapiens, UniProt Q04912); assay: Off-target kinase profiling (KinaseProfiler); assay type: biochemical; settings: 10 μM, ATP near Km
T26 construct: purchased Millipore, Inc. (KinaseProfiler service)
Method: as §1

TAO1 = molecular target: T27, TAO1 (Homo sapiens, UniProt Q7L7X3); assay: Off-target kinase profiling (KinaseProfiler); assay type: biochemical; settings: 10 μM, ATP near Km
T27 construct: purchased Millipore, Inc. (KinaseProfiler service)
Method: as §1

TNK2 = molecular target: T28, TNK2 (Homo sapiens, UniProt Q07912); assay: Off-target kinase profiling (KinaseProfiler); assay type: biochemical; settings: 10 μM, ATP near Km
T28 construct: purchased Millipore, Inc. (KinaseProfiler service)
Method: as §1

Tie2 = molecular target: T29, Tie2 (Homo sapiens, UniProt Q02763); assay: Off-target kinase profiling (KinaseProfiler); assay type: biochemical; settings: 10 μM, ATP near Km
T29 construct: purchased Millipore, Inc. (KinaseProfiler service)
Method: as §1

mTOR/FKBP12 = molecular target: T30, mTOR/FKBP12 (Homo sapiens, UniProt P42345); assay: Off-target kinase profiling (KinaseProfiler); assay type: biochemical; settings: 10 μM, ATP near Km
T30 construct: purchased Millipore, Inc. (KinaseProfiler service)
Method: as §1

p38beta = molecular target: T31, p38beta (Homo sapiens, UniProt Q15759); assay: Off-target kinase profiling (KinaseProfiler); assay type: biochemical; settings: 10 μM, ATP near Km
T31 construct: purchased Millipore, Inc. (KinaseProfiler service)
Method: as §1

T22 sequence (O15146 24-869): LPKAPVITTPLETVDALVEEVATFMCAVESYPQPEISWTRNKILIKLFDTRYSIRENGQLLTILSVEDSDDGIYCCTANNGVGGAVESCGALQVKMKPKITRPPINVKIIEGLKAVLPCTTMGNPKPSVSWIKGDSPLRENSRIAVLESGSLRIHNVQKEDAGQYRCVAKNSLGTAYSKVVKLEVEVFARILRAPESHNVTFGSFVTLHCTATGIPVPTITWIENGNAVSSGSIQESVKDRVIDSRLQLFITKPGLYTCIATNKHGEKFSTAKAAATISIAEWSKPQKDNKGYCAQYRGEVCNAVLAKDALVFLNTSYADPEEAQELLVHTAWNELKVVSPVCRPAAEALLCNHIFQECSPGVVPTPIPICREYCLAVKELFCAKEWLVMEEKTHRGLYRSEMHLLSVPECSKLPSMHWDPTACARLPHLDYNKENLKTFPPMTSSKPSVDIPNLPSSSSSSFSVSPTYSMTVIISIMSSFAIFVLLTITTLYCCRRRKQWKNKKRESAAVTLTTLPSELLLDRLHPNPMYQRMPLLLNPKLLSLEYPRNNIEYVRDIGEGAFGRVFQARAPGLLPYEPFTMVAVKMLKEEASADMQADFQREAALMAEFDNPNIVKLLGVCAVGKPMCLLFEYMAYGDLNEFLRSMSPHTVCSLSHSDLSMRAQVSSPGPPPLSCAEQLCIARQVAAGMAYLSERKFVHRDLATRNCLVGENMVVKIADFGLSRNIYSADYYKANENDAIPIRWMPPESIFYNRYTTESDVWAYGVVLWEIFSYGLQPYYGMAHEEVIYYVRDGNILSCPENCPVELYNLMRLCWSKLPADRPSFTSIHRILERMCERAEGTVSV
T20 sequence (Q02750 whole entry): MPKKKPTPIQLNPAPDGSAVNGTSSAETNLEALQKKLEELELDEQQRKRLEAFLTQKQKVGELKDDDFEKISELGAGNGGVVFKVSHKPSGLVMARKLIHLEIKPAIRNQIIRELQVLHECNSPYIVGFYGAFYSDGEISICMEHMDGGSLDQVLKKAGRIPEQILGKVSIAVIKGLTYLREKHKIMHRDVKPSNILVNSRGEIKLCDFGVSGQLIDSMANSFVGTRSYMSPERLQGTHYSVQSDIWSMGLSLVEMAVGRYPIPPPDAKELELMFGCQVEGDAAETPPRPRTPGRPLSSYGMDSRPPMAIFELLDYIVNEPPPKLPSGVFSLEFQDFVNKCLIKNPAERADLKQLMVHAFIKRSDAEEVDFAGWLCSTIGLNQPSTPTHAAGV
T7 sequence (Q00535 whole entry): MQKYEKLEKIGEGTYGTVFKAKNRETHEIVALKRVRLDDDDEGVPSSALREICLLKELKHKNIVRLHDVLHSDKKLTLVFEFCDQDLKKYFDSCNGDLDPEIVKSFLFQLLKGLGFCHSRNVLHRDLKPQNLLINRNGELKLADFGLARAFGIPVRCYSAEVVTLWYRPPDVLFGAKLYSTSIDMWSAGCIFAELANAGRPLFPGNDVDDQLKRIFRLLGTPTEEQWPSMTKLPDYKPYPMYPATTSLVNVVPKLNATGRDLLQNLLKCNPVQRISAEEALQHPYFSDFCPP
T7 sequence (Q15078 99-307 partner limits assumed): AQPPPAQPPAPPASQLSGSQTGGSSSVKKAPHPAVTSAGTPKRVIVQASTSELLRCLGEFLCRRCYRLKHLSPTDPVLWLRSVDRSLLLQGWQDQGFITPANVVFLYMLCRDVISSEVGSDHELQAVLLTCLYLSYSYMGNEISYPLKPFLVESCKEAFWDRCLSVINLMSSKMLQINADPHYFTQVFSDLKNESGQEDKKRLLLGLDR
T8 sequence (Q00535 whole entry): as the sequence (Q00535 whole entry) above
T8 sequence (Q15078 2-307 partner limits assumed): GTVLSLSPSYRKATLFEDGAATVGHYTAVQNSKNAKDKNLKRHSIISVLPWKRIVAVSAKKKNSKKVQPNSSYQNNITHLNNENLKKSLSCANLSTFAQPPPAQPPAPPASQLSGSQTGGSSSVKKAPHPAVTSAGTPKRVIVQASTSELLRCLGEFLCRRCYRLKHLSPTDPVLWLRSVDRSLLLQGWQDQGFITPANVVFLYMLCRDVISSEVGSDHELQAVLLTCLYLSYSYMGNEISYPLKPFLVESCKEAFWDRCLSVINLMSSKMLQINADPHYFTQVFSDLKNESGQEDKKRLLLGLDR
T4 sequence (Q13554 whole entry): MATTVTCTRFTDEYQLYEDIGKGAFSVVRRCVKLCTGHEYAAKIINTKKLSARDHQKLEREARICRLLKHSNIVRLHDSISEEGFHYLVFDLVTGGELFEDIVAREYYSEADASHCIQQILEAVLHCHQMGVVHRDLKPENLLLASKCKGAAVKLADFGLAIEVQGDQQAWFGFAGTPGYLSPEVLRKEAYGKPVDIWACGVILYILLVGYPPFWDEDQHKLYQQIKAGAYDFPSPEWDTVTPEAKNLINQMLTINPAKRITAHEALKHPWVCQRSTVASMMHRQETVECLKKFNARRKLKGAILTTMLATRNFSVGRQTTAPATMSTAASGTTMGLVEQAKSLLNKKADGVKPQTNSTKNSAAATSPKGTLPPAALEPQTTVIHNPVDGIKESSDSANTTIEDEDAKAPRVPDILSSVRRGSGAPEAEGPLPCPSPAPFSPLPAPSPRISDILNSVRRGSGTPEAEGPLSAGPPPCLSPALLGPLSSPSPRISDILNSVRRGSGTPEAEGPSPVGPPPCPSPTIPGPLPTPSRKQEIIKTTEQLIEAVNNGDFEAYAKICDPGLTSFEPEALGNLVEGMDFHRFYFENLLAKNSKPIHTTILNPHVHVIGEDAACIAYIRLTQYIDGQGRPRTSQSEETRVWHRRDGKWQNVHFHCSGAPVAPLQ
T1 sequence (P04629 440-796 limits assumed): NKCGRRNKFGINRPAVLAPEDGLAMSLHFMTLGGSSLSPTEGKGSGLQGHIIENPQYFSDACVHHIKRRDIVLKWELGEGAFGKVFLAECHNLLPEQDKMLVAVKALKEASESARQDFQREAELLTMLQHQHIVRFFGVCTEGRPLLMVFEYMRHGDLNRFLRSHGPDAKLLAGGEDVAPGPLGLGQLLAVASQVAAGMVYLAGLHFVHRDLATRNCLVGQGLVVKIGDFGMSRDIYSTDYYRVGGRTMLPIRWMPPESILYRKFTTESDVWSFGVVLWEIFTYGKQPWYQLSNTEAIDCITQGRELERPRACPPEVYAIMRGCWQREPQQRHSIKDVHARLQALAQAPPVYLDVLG
T23 sequence (Q9HC98 whole entry): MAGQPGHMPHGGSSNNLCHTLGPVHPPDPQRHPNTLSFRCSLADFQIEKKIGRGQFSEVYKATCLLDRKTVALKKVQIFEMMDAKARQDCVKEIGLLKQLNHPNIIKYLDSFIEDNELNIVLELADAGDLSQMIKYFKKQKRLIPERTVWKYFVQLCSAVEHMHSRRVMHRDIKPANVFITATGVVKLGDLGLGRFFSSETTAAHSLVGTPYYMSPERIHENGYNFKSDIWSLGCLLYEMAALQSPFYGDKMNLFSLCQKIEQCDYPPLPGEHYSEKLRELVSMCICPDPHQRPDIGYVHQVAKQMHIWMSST
T11 sequence (Q9UIK4 whole entry): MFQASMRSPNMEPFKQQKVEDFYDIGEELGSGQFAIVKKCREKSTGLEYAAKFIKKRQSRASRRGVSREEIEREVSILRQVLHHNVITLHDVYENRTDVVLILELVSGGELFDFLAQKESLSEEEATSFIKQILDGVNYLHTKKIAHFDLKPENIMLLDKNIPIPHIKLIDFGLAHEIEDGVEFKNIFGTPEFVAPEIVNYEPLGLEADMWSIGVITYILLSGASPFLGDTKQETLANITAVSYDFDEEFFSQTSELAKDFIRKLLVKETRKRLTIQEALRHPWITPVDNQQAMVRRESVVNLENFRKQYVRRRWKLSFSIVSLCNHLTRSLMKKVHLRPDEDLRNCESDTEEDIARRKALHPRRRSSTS
T31 sequence (Q15759 whole entry): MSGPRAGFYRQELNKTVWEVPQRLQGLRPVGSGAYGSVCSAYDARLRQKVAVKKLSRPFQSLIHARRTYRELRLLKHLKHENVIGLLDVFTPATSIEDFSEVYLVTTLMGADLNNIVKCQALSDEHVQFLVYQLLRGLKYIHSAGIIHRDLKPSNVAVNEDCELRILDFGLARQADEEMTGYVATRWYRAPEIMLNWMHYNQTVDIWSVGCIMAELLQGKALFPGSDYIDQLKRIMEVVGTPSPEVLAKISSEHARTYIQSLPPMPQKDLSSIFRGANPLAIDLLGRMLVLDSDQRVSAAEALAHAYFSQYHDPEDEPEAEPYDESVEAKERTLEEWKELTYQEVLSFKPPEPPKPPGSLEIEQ
T2 sequence (Q9Y243 whole entry): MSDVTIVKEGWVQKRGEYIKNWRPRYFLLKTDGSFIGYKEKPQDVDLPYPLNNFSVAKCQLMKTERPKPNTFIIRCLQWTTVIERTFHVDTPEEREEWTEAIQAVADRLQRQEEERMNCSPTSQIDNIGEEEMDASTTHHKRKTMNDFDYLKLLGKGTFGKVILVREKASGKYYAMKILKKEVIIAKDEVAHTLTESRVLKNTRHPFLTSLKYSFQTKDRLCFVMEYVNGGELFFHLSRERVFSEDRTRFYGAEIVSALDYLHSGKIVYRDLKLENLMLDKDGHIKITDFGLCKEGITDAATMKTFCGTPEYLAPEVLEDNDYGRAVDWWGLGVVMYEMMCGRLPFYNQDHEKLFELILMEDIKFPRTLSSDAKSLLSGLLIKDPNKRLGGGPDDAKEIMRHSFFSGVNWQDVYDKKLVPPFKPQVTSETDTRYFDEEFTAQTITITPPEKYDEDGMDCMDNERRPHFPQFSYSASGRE

- IC50 [1]: < 0.1 µM
- Avg POC (AKT3): 130.5 POC
- Avg POC (ARK5): 103.5 POC
- Avg POC (CAMK2b): 105 POC
- Avg POC (CAMK4): 127 POC
- Avg POC (CDK2/cyclinA): 136 POC
- Avg POC (CDK5/p25): 110.5 POC
- Avg POC (CDK5/p35): 123.5 POC
- Avg POC (CHK2): 110.5 POC
- Avg POC (CK1_y): 105 POC
- Avg POC (DAPK1): 118 POC
- Avg POC (DAPK2): 105.5 POC
- Avg POC (ERK1): 110 POC
- Avg POC (EphA4): 100.5 POC
- Avg POC (EphA8): 112.5 POC
- Avg POC (FGFR2): 110 POC
- Avg POC (GRK7): 97 POC
- Avg POC (Hck): 135.5 POC
- Avg POC (IGF-1R): 81 POC
- Avg POC (LKB1): 111 POC
- Avg POC (MEK1): 114 POC
- Avg POC (MSK2): 107 POC
- Avg POC (MuSK): 94 POC
- Avg POC (NEK6): 120 POC
- Avg POC (PKCeta): 122 POC
- Avg POC (PhKgamma2): 118 POC
- Avg POC (Ron): 117 POC
- Avg POC (TAO1): 104.5 POC
- Avg POC (TNK2): 115 POC
- Avg POC (Tie2): 148.5 POC
- Avg POC (mTOR/FKBP12): 113 POC
- Avg POC (p38beta): 117 POC
Structure (SMILES): COCc1ccc2cccc(NC(=O)Nc3c(C)c(-c4cnn(C)c4)nn3-c3ccccc3)c2c1 [Example 16, 1-(1′,4-dimethyl-1-phenyl-1H,1′H-[3,4′-bipyrazol]-5-yl)-3-(7-(methoxymethyl)naphthalen-1-yl)urea]
